Where “and” joins values, the source holds several entries; their conditions need not be identical. Equal values may be shown once.
Assays:
[1] = Plasma pharmacokinetics of OSI-930; assay type: in vivo, human; details: for AUC / Cmax / concentration at 22 day / half-life / Tmax: human, plasma
advanced solid tumors = assay: Antitumor response; assay type: in vivo, human
[2] = tested on: pelvic or hepatic lesions; assay: DCE-MRI functional imaging; assay type: in vivo, human
[3] = in vivo
c-Kit = details: intact cellular systems; cited from earlier work
[4] = Phase I dose escalation: safety, tolerability, DLT and MTD
[5] = 19 evaluable patients with GIST
[6] = ovarian cancer patient, 400 mg twice a day
[7] = second ovarian cancer patient, 500 mg twice a day

O=C(Nc1ccc(OC(F)(F)F)cc1)c1sccc1NCc1ccnc2ccccc12 [OSI-930]
Rate and extent of absorption, sieved (screened) vs micronized capsules ([1]; 400 mg twice a day cohort, 3 vs 4 patients, data not shown): similar
Dose proportionality of exposure ([1]; 400 and 500 mg twice a day): dose proportional
Dose proportionality of exposure ([1]; between 500 and 600 mg twice a day): greater than dose proportional
AUC ([1]; oral, 50 mg, AUCtau, 50 mg once a day (n = 1), day 22, steady state): 2590 ng·h/mL
Cmax ([1]; oral, 50 mg, Cmax, 50 mg once a day (n = 1), day 22, steady state): 188 ng/mL
concentration at 22 day ([1]; oral, 50 mg, Cmin, 50 mg once a day (n = 1), day 22, steady state): 69.3 ng/mL
half-life ([1]; oral, 50 mg, T1/2, 50 mg once a day (n = 1), day 22, steady state): 12.6 h
Tmax ([1]; oral, 50 mg, Tmax, 50 mg once a day (n = 1), day 22, steady state): 6 h
AUC ([1]; oral, 100 mg, AUCtau, 100 mg once a day (n = 1), day 22, steady state): 2490 ng·h/mL
Cmax ([1]; oral, 100 mg, Cmax, 100 mg once a day (n = 1), day 22, steady state): 228 ng/mL
concentration at 22 day ([1]; oral, 100 mg, Cmin, 100 mg once a day (n = 1), day 22, steady state): 61.5 ng/mL
half-life ([1]; oral, 100 mg, T1/2, 100 mg once a day (n = 1), day 22, steady state): 18.5 h
Tmax ([1]; oral, 100 mg, Tmax, 100 mg once a day (n = 1), day 22, steady state): 4 h
AUC ([1]; oral, 200 mg, AUCtau, 200 mg once a day (n = 1), day 22, steady state): 4730 ng·h/mL
Cmax ([1]; oral, 200 mg, Cmax, 200 mg once a day (n = 1), day 22, steady state): 463 ng/mL
concentration at 22 day ([1]; oral, 200 mg, Cmin, 200 mg once a day (n = 1), day 22, steady state): 77.9 ng/mL
half-life ([1]; oral, 200 mg, T1/2, 200 mg once a day (n = 1), day 22, steady state): 7.95 h
Tmax ([1]; oral, 200 mg, Tmax, 200 mg once a day (n = 1), day 22, steady state): 6 h
AUC ([1]; oral, 400 mg, AUCtau, 400 mg once a day (n = 2), day 22, steady state): 10700 ng·h/mL
AUC ([1]; oral, 400 mg, AUCtau, 400 mg twice a day (n = 6), day 22, steady state): 7880 ng·h/mL
Cmax ([1]; oral, 400 mg, Cmax, 400 mg once a day (n = 2), day 22, steady state): 873 ng/mL
Cmax ([1]; oral, 400 mg, Cmax, 400 mg twice a day (n = 6), day 22, steady state): 802 ng/mL
concentration at 22 day ([1]; oral, 400 mg, Cmin, 400 mg once a day (n = 2), day 22, steady state): 306 ng/mL
concentration at 22 day ([1]; oral, 400 mg, Cmin, 400 mg twice a day (n = 6), day 22, steady state): 423 ng/mL
half-life ([1]; oral, 400 mg, T1/2, 400 mg once a day (n = 2), day 22, steady state): 13.8 h
half-life ([1]; oral, 400 mg, T1/2, 400 mg twice a day (n = 6), day 22, steady state): 4.07 h
Tmax ([1]; oral, 400 mg, Tmax, 400 mg once a day (n = 2), day 22, steady state): 4 h
Tmax ([1]; oral, 400 mg, Tmax, 400 mg twice a day (n = 6), day 22, steady state): 6.1 h
AUC ([1]; oral, 500 mg, AUCtau, 500 mg twice a day (n = 21), day 22, steady state): 5760 ng·h/mL
Cmax ([1]; oral, 500 mg, Cmax, 500 mg twice a day (n = 21), day 22, steady state): 1010 ng/mL
concentration at 22 day ([1]; oral, 500 mg, Cmin, 500 mg twice a day (n = 21), day 22, steady state): 547 ng/mL
half-life ([1]; oral, 500 mg, T1/2, 500 mg twice a day (n = 21), day 22, steady state): 7.11 h
Tmax ([1]; oral, 500 mg, Tmax, 500 mg twice a day (n = 21), day 22, steady state): 3.6 h
AUC ([1]; oral, 600 mg, AUCtau, 600 mg twice a day (n = 6), day 22, steady state): 11900 ng·h/mL
Cmax ([1]; oral, 600 mg, Cmax, 600 mg twice a day (n = 6), day 22, steady state): 2030 ng/mL
concentration at 22 day ([1]; oral, 600 mg, Cmin, 600 mg twice a day (n = 6), day 22, steady state): 1170 ng/mL
half-life ([1]; oral, 600 mg, T1/2, 600 mg twice a day (n = 6), day 22, steady state): 5.39 h
Tmax ([1]; oral, 600 mg, Tmax, 600 mg twice a day (n = 6), day 22, steady state): 3.5 h
AUC ([1]; oral, 800 mg, AUCtau, 800 mg once a day (n = 2), day 22, steady state): 11300 ng·h/mL
Cmax ([1]; oral, 800 mg, Cmax, 800 mg once a day (n = 2), day 22, steady state): 984 ng/mL
concentration at 22 day ([1]; oral, 800 mg, Cmin, 800 mg once a day (n = 2), day 22, steady state): 304 ng/mL
half-life ([1]; oral, 800 mg, T1/2, 800 mg once a day (n = 2), day 22, steady state): 18.1 h
Tmax ([1]; oral, 800 mg, Tmax, 800 mg once a day (n = 2), day 22, steady state): 4.1 h
AUC ([1]; oral, 1200 mg, AUCtau, 1,200 mg once a day (n = 1), day 22, steady state): 19600 ng·h/mL
Cmax ([1]; oral, 1200 mg, Cmax, 1,200 mg once a day (n = 1), day 22, steady state): 1990 ng/mL
concentration at 22 day ([1]; oral, 1200 mg, Cmin, 1,200 mg once a day (n = 1), day 22, steady state): 493 ng/mL
half-life ([1]; oral, 1200 mg, T1/2, 1,200 mg once a day (n = 1), day 22, steady state): 20.2 h
Tmax ([1]; oral, 1200 mg, Tmax, 1,200 mg once a day (n = 1), day 22, steady state): 4 h
AUC ([1]; oral, 1600 mg, AUCtau, 1,600 mg once a day (n = 3), day 22, steady state): 13000 ng·h/mL
Cmax ([1]; oral, 1600 mg, Cmax, 1,600 mg once a day (n = 3), day 22, steady state): 1070 ng/mL
concentration at 22 day ([1]; oral, 1600 mg, Cmin, 1,600 mg once a day (n = 3), day 22, steady state): 249 ng/mL
half-life ([1]; oral, 1600 mg, T1/2, 1,600 mg once a day (n = 3), day 22, steady state): 12.6 h
Tmax ([1]; oral, 1600 mg, Tmax, 1,600 mg once a day (n = 3), day 22, steady state): 6 h
half-life ([1]; oral, Terminal half-life, twice a day cohort): 2.3 to 7.1 h
Tmax ([1]; po, Time to peak plasma concentrations, once a day and twice a day cohorts): 2 to 10 h
Linearity of Cmax and AUC ([1]; once a day cohorts): linearity in Cmax and AUC in the dose range 50 to 1,200 mg, but not at 1,600 mg
Accumulation in plasma at steady state ([1]; twice a day oral administration): ~2 fold
Steady state plasma concentrations achieved ([1]; twice a day oral administration, predose concentrations days 8, 15, 22): ≤ 8 days
Duration of disease stabilization (advanced solid tumors; 1 patient, anthracycline-resistant low-grade sarcoma, once a day): 139 weeks
Duration of RECIST stabilization of disease (advanced solid tumors; 1 patient, low-grade sarcoma, escalated from 100 to 1,200 mg once a day): 33 months
Patients with stable disease as best response (advanced solid tumors; [5]): 57.9% and 58%
RECIST PRs (advanced solid tumors; [5]): no RECIST PRs
RECIST partial or complete responses (advanced solid tumors; once a day cohorts): No RECIST partial or complete responses
Patients with stable disease as best response (advanced solid tumors; once a day cohorts, 50 to 1,600 mg): 4 of 12
Time of confirmed RECIST PR (advanced solid tumors; [6]): 24 weeks
Time of disease progression (advanced solid tumors; [6]): 65 weeks
Time to GCIG CA125 response (advanced solid tumors; [6]): 15 weeks
Median duration of stable disease (advanced solid tumors; patients with GIST): 126 days
Further duration of GCIG CA125 response (advanced solid tumors; [7]): 12 weeks
Time to GCIG CA125 response (advanced solid tumors; [7]): 12 weeks
Patients who achieved stable disease (advanced solid tumors; twice a day cohort): 48%
Decreases of IAUC and AUC from baseline values ([2]; 4 responding patients, 500 mg twice a day): −4% to −78%
Decrease in Ktrans and Ve ([2]; day 22, 4 of 6 patients with non-GIST tumors): > 40%
Cases of grade 2 proteinuria ([3]; human): 1 case
Grade 3 hypertension (number) ([3]; human): 1
Patients requiring a dose modification ([3]; human): 33 patients
Patients who developed grade 1 to 2 PPE ([3]; human): 15%
Patients with adverse events considered related to OSI-930 ([3]; human): 58%
Patients with anorexia (reported adverse events) ([3]; human): 6
Patients with at least 1 grade 3 adverse event of any cause ([3]; human): 50%
Patients with fatigue (reported adverse events) ([3]; human): 8
Patients with grade 1 to 2 drug-related fatigue ([3]; human): 3 patients
Patients with grade 1 to 2 drug-related nausea and anorexia ([3]; human): 2 patients
Patients with grade 3 PPE ([3]; human): 1 patient
Patients with nausea (reported adverse events) ([3]; human): 5
Patients with treatment discontinued for toxicity ([3]; human): 1 patient
Treatment-related adverse events greater than grade 2 ([3]; human): no treatment-related adverse events greater than grade 2
Treatment-related fatigue ([3]; human): 50%
Treatment-related grade 3 fatigue ([3]; human): 6%
Treatment-related grade 3 hypertension ([3]; human): 6%
Treatment-related grade 3 nausea ([3]; human): 6%
Treatment-related grade 3 skin toxicity ([3]; human): 6%
Patients with grade 1 to 2 drug-related skin and subcutaneous disorders ([3]; human, sc): 3 patients
Reports of mucositis [3]: no reports of mucositis
Potency for wild-type versus mutant c-Kit (c-Kit): equal potencies
Treatment-related AEs (number): Abdominal pain, G1–2 ([4]; 1,600 mg once a day (n = 3)): 1
Treatment-related AEs (number): Abdominal pain, G3 ([4]; 1,600 mg once a day (n = 3)): 0
Treatment-related AEs (number): Anorexia, G1–2 ([4]; 1,600 mg once a day (n = 3)): 2
Treatment-related AEs (number): Anorexia, G3 ([4]; 1,600 mg once a day (n = 3)): 0
Treatment-related AEs (number): Diarrhea, G1–2 ([4]; 1,600 mg once a day (n = 3)): 0
Treatment-related AEs (number): Diarrhea, G3 ([4]; 1,600 mg once a day (n = 3)): 0
Treatment-related AEs (number): Dry skin, G1–2 ([4]; 1,600 mg once a day (n = 3)): 0
Treatment-related AEs (number): Dry skin, G3 ([4]; 1,600 mg once a day (n = 3)): 0
Treatment-related AEs (number): Dyspepsia, G1–2 ([4]; 1,600 mg once a day (n = 3)): 0
Treatment-related AEs (number): Dyspepsia, G3 ([4]; 1,600 mg once a day (n = 3)): 0
Treatment-related AEs (number): Fatigue, G1–2 ([4]; 1,600 mg once a day (n = 3)): 1
Treatment-related AEs (number): Fatigue, G3 ([4]; 1,600 mg once a day (n = 3)): 0
Treatment-related AEs (number): Flatulence, G1–2 ([4]; 1,600 mg once a day (n = 3)): 0
Treatment-related AEs (number): Flatulence, G3 ([4]; 1,600 mg once a day (n = 3)): 0
Treatment-related AEs (number): Hair color changes, G1–2 ([4]; 1,600 mg once a day (n = 3)): 0
Treatment-related AEs (number): Hair color changes, G3 ([4]; 1,600 mg once a day (n = 3)): 0
Treatment-related AEs (number): Headache, G1–2 ([4]; 1,600 mg once a day (n = 3)): 0
Treatment-related AEs (number): Headache, G3 ([4]; 1,600 mg once a day (n = 3)): 0
Treatment-related AEs (number): Hypertension, G1–2 ([4]; 1,600 mg once a day (n = 3)): 0
Treatment-related AEs (number): Hypertension, G3 ([4]; 1,600 mg once a day (n = 3)): 0
Treatment-related AEs (number): Muscle spasms, G1–2 ([4]; 1,600 mg once a day (n = 3)): 0
Treatment-related AEs (number): Muscle spasms, G3 ([4]; 1,600 mg once a day (n = 3)): 0
Treatment-related AEs (number): Myalgia, G1–2 ([4]; 1,600 mg once a day (n = 3)): 0
Treatment-related AEs (number): Myalgia, G3 ([4]; 1,600 mg once a day (n = 3)): 0
Treatment-related AEs (number): Nausea, G1–2 ([4]; 1,600 mg once a day (n = 3)): 1
Treatment-related AEs (number): Nausea, G3 ([4]; 1,600 mg once a day (n = 3)): 0
Treatment-related AEs (number): Palmar-plantar erythema, G1–2 ([4]; 1,600 mg once a day (n = 3)): 0
Treatment-related AEs (number): Palmar-plantar erythema, G3 ([4]; 1,600 mg once a day (n = 3)): 0
Treatment-related AEs (number): Vomiting, G1–2 ([4]; 1,600 mg once a day (n = 3)): 0
Treatment-related AEs (number): Vomiting, G3 ([4]; 1,600 mg once a day (n = 3)): 0
DLTs observed ([4]; once a day dosing schedule, 50 to 1,600 mg): no DLTs
Treatment-related deaths ([4]; twice a day cohorts): no treatment-related deaths

Source: article PMC3880798 (Clinical cancer research : an official journal of the …, 2013)
